Values after ≈ are worked out from the molar mass of the structure shown. Read-outs that look alike come from different tables or passages of the source.
Assays:
Type in all cases: cell-based
H. influenzae = test: Expanded Spectrum MIC (Table II); settings: Haemophilus influenzae
Description: (§1) A typical and preferred compound provided by this invention is 7-(3-benzothienyl)glycylamido-3-methyl-3-cephem-4-carboxylic acid, the compound illustrated in Example 9. The antibacterial activity of this compound has been determined in standard in vitro agar dilution assays against a variety of gram positive and gram negative microorganism. The following Tables present typical minimum inhibitory concentrations (MIC's) in μg/ml for several compounds of the invention when evaluated against the indicated microorganisms. MIC's for several known compounds are also presented for comparison.
(§2) Expanded Spectrum MIC (μg/ml)

Staph. epi [1] = test: Expanded Spectrum MIC (Table II)
Description: as §1, §2

Staph. aureus [2] = test: Expanded Spectrum MIC (Table II); settings: Staphylococcus aureus
Description: as §1, §2

Strep. A = test: Agar Dilution MIC (Table I); settings: strain C203; read-out: Agar Dilution MIC
Staph. epi [3] = test: Agar Dilution MIC (Table I); settings: read-out: Agar Dilution MIC
Bacteroides corrodens = test: Susceptibility of Anaerobic Bacteroides Isolates by the Agar-Dilution Method (Table III); settings: Eikenella corrodens; strain 1874; readings 24 hrs. after incubation
Description: as §1
(§3) Susceptibility of Anaerobic Bacteroides Isolates by the
(§4) Agar-Dilution Method MIC (μg/ml) readings 24 hrs. after incubation

Bacteroides fragilis = test: as above; settings: 24 h
Description: as §1, §3, §4

[4] = system: Bacteroides thetaiotaomicron; test: as above; settings: 24 h
Description: as §1, §3, §4

H. influ. = test: Agar Dilution MIC (Table I); settings: read-out: Agar Dilution MIC
Klebsiella = test: Agar Dilution MIC (Table I); settings: for MIC: Klebsiella, read-out: Agar Dilution MIC
E. coli = test: Agar Dilution MIC (Table I); settings: Escherichia coli
Staph. aureus [5] = test: Agar Dilution MIC (Table I); settings: Staphylococcus aureus
Strep. D = test: Agar Dilution MIC (Table I)
Description: as §1
Agar Dilution MIC (μg/ml)

Strep. PN = test: Agar Dilution MIC (Table I); settings: strain PARK
[6] = strain 9, readings 24 hrs. after incubation
[7] = strain 103, readings 24 hrs. after incubation
[8] = strain 104, readings 24 hrs. after incubation
[9] = strain 106, readings 24 hrs. after incubation
[10] = strain 107, readings 24 hrs. after incubation
[11] = strain 108, readings 24 hrs. after incubation
[12] = strain 110, readings 24 hrs. after incubation
[13] = strain 111, readings 24 hrs. after incubation
[14] = strain 1877, readings 24 hrs. after incubation
[15] = strain 1438, readings 24 hrs. after incubation
[16] = strain 1900A, readings 24 hrs. after incubation

## CC1=C(C(=O)O)N2C(=O)C(NC(=O)[C@H](N)c3csc4c(F)cccc34)C2SC1 (stereo partly drawn) [Ex. 20, D-7-(7-Fluoro-3-benzothienyl)glycylamido-3-methyl-3-cephem-4-carboxylic acid]
H. influenzae; strain 76
  MIC: 1 µg/mL (≈ 2.37 µM)
H. influenzae; strain 105
  MIC: 2 µg/mL (≈ 4.75 µM)
H. influenzae; strain 158
  MIC: 2 µg/mL (≈ 4.75 µM)
H. influenzae; strain 164
  MIC: 2 µg/mL (≈ 4.75 µM)
H. influenzae; strain 169
  MIC: 4 µg/mL (≈ 9.49 µM)
H. influenzae; strain 171
  MIC: 2 µg/mL (≈ 4.75 µM)
H. influenzae; strain 312
  MIC: 4 µg/mL (≈ 9.49 µM)
H. influenzae; strain 1683
  MIC: 1 µg/mL (≈ 2.37 µM)
H. influenzae; strain 1930
  MIC: 4 µg/mL (≈ 9.49 µM)
H. influenzae; strain 4842
  MIC: 2 µg/mL (≈ 4.75 µM)
H. influenzae; strain C.L.
  MIC: 16 µg/mL (≈ 38 µM)
H. influenzae; strain HESS
  MIC: 8 µg/mL (≈ 19 µM)
H. influenzae; strain M366
  MIC: 64 µg/mL (≈ 152 µM)
H. influenzae; strain M370
  MIC: 2 µg/mL (≈ 4.75 µM)
H. influenzae; strain M371
  MIC: 2 µg/mL (≈ 4.75 µM)
H. influenzae; strain R465
  MIC: 64 µg/mL (≈ 152 µM)
H. influenzae; strain STEL
  MIC: 64 µg/mL (≈ 152 µM)
Staph. epi [1]; strain 219
  MIC: 2 µg/mL (≈ 4.75 µM)
Staph. epi [1]; strain 269
  MIC: 4 µg/mL (≈ 9.49 µM)
Staph. epi [1]; strain 270
  MIC: 8 µg/mL (≈ 19 µM)
Staph. epi [1]; strain 285
  MIC: 4 µg/mL (≈ 9.49 µM)
Staph. epi [1]; strain 286
  MIC: 1 µg/mL (≈ 2.37 µM)
Staph. epi [1]; strain EPI1
  MIC: 16 µg/mL (≈ 38 µM)
Staph. aureus [2]; strain S224
  MIC: 2 µg/mL (≈ 4.75 µM)
Staph. aureus [2]; strain S225
  MIC: 2 µg/mL (≈ 4.75 µM)
Staph. aureus [2]; strain S226
  MIC: 2 µg/mL (≈ 4.75 µM)
Staph. aureus [2]; strain S227
  MIC: 2 µg/mL (≈ 4.75 µM)
Staph. aureus [2]; strain S228
  MIC: 2 µg/mL (≈ 4.75 µM)
Staph. aureus [2]; strain S229
  MIC: 2 µg/mL (≈ 4.75 µM)
Staph. aureus [2]; strain S230
  MIC: 2 µg/mL (≈ 4.75 µM)
Staph. aureus [2]; strain S231
  MIC: 1 µg/mL (≈ 2.37 µM)
Staph. aureus [2]; strain S234
  MIC: 2 µg/mL (≈ 4.75 µM)
Staph. aureus [2]; strain S237
  MIC: 2 µg/mL (≈ 4.75 µM)
Staph. aureus [2]; strain S238
  MIC: 4 µg/mL (≈ 9.49 µM)
Staph. aureus [2]; strain S239
  MIC: 2 µg/mL (≈ 4.75 µM)
Strep. A
  MIC: 0.125 µg/mL (≈ 0.297 µM)
Staph. epi [3]; strain 222
  MIC: 2 µg/mL (≈ 4.75 µM)
Staph. epi [3]; strain EPI1
  MIC: 4 µg/mL (≈ 9.49 µM)
Bacteroides corrodens
  MIC: 64 µg/mL (≈ 152 µM)
Bacteroides fragilis; [6]
  MIC: 16 µg/mL (≈ 38 µM)
Bacteroides fragilis; [7]
  MIC: 64 µg/mL (≈ 152 µM)
Bacteroides fragilis; [8]
  MIC: 8 µg/mL (≈ 19 µM)
Bacteroides fragilis; [9]
  MIC: 16 µg/mL (≈ 38 µM)
Bacteroides fragilis; [10]
  MIC: 32 µg/mL (≈ 75.9 µM)
Bacteroides fragilis; [11]
  MIC: 8 µg/mL (≈ 19 µM)
Bacteroides fragilis; [12]
  MIC: 32 µg/mL (≈ 75.9 µM)
Bacteroides fragilis; [13]
  MIC: 128 µg/mL (≈ 304 µM)
Bacteroides fragilis; [14]
  MIC: 16 µg/mL (≈ 38 µM)
[4]; [15]
  MIC: 16 µg/mL (≈ 38 µM)
[4]; [16]
  MIC: 32 µg/mL (≈ 75.9 µM)
H. influ.; strain 76
  MIC: 0.5 µg/mL (≈ 1.19 µM)
H. influ.; strain C.L.
  MIC: 4 µg/mL (≈ 9.49 µM)
Klebsiella
  MIC: 128 µg/mL (≈ 304 µM)
Klebsiella; strain X26
  MIC: 4 µg/mL (≈ 9.49 µM)
Klebsiella; strain X68
  Agar Dilution MIC: 128 µg/mL
E. coli; strain EC14
  MIC: 128 µg/mL (≈ 304 µM)
E. coli; strain N10
  MIC: 128 µg/mL (≈ 304 µM)
E. coli; strain TEM
  MIC: 128 µg/mL (≈ 304 µM)
Staph. aureus [5]; read-out: Agar Dilution MIC, strain S13E
  MIC: 8 µg/mL (≈ 19 µM)
Staph. aureus [5]; strain V41, read-out: Agar Dilution MIC
  MIC: 16 µg/mL (≈ 38 µM)
Staph. aureus [5]; strain X1.1, read-out: Agar Dilution MIC
  MIC: 0.5 µg/mL (≈ 1.19 µM)
Staph. aureus [5]; strain X400, read-out: Agar Dilution MIC
  MIC: 128 µg/mL (≈ 304 µM)
Strep. D; read-out: Agar Dilution MIC
  MIC: 128 µg/mL (≈ 304 µM)
Strep. D; strain 2041
  Agar Dilution MIC: 128 µg/mL
Strep. PN
  MIC: 0.5 µg/mL (≈ 1.19 µM)

## CO[C@@]1(NC(=O)C(C(=O)O)c2ccc(O)cc2)C(=O)N2C(C(=O)O)=C(CSc3nnnn3C)CO[C@@H]21 (some centres unmarked) [moxalactam, reference compound]
Bacteroides corrodens
  MIC: 8 µg/mL (≈ 15.4 µM)
Bacteroides fragilis; [6]
  MIC: 0.5 µg/mL (≈ 0.961 µM)
Bacteroides fragilis; [7]
  MIC: 4 µg/mL (≈ 7.69 µM)
Bacteroides fragilis; [8]
  MIC: 0.5 µg/mL (≈ 0.961 µM)
Bacteroides fragilis; [9]
  MIC: 1 µg/mL (≈ 1.92 µM)
Bacteroides fragilis; [10]
  MIC: 1 µg/mL (≈ 1.92 µM)
Bacteroides fragilis; [11]
  MIC: 0.5 µg/mL (≈ 0.961 µM)
Bacteroides fragilis; [12]
  MIC: 0.5 µg/mL (≈ 0.961 µM)
Bacteroides fragilis; [13]
  MIC: 8 µg/mL (≈ 15.4 µM)
Bacteroides fragilis; [14]
  MIC: 2 µg/mL (≈ 3.84 µM)
[4]; [15]
  MIC: 2 µg/mL (≈ 3.84 µM)
[4]; [16]
  MIC: 64 µg/mL (≈ 123 µM)

— US4492693A, “Benzothienylglycyl cephalosporin derivatives” (priority 1983, dated 1985)
